Assay results from US20230000876A1, “TREATING CANCERS WITH A CYCLIN-DEPENDENT KINASE INHIBITOR” (Nuvation Bio Inc., priority 2021, published 2023).

Test system: SK-MEL-28
Assay: Cell viability assay, melanoma cell line SK-MEL-28
Format: cell-based
Procedure: 4.4.4 Compound Plate (10×) Preparation and Compound Treatment • 10× concentrate compound plate preparation: Add 198 μL of assay medium into each well of the V-bottom plate; then transfer 2 μL of the stock compound solution of each concentration from the stock plate. Add 2 μL of DMSO into the Blank and Control wells. Pipette up and down to mix well. This V-plate is designated as the 10× concentrate compound plate. • For day 0 plate, add 15 μL of the DMSO-medium into the Control wells. The final DMSO concentration was 0.1%. Then directly proceed to cell viability assay. • For assay plate, add 15 μL of the compound-medium of each well from the 10× concentrate compound plate into the cells in 96-well assay plate according to the plate map. Add 15 μL of the DMSO-medium into the Blank and Control wells. The final DMSO concentration was 0.1%. • Return the assay plate into incubator and incubate for 6 days.
The procedures were performed according to the Promega CellTiter-Glo Luminescent Cell Viability Assay Kit manual (Promega-G7573). • The CellTiter-Glo buffer was thawed and equilibrated to room temperature prior to use. • CellTiter-Glo Substrate was equilibrated to room temperature prior to use. • The entire liquid volume of CellTiter-Glo Buffer was transferred into the amber bottle containing CellTiter-Glo Substrate to reconstitute the lyophilized enzyme/substrate mixture. […] Plates were covered with aluminum foil to protect from light. • The contents were mixed for 2 minutes on an orbital shaker to induce cell lysis. • The plate was incubated at room temperature for 20 minutes to stabilize luminescent signal. • Record luminescence on the 2104 EnVision plate reader.
Inhibition rate (IR) of the tested compounds was determined by the following formula: IR (%)=(1−(RLU compound−RLU day0)/(RLU control−RLU day0))*100%. The inhibitions of different dose of compound were calculated in Excel file, and then were used to plot inhibition curves and evaluate related parameters, such as Min (%), Max (%) and GI50. […]

With `CC(C)N1CCOc2c(F)cc(-c3nc(Nc4ccc(C5CCN(C)CC5)cn4)ncc3F)cc21` [Compound (I), 5-fluoro-4-(8-fluoro-4-isopropyl-3,4-dihydro-2H-benzo[b][1,4]oxazin-6-yl)-N-(5-(1-methylpiperidin-4-yl)pyridin-2-yl)pyrimidin-2-amine] the GI50 (Homo sapiens, SK-MEL-28, read-out: Absolute GI50) was 152 nM, the “Max (%)” value (inhibition rate) was 106.21% and the “Min (%)” value (inhibition rate) was 1.70%.
